# Tests used:
# [1] = Ratio of permeability from basolateral to apical side over apical to basolateral side in RRCK cells expressing MDR1; type: ADME, cell-based, Canis lupus familiaris; conditions: dog, mdckii-le
# [2] = tested on: Hepatocyte; assay: Stability in human hepatocytes; type: ADME, cell-based
# [3] = target: Cytochrome P450 3A4 (Homo sapiens, UniProt P08684); assay: Inhibition of CYP3A4 (unknown origin); type: ADME
# [4] = target: T1, Cytochrome P450 2C8 (Homo sapiens, UniProt P10632); assay: Inhibition of CYP2C8 (unknown origin); type: ADME
# T1 sequence (P10632 whole entry): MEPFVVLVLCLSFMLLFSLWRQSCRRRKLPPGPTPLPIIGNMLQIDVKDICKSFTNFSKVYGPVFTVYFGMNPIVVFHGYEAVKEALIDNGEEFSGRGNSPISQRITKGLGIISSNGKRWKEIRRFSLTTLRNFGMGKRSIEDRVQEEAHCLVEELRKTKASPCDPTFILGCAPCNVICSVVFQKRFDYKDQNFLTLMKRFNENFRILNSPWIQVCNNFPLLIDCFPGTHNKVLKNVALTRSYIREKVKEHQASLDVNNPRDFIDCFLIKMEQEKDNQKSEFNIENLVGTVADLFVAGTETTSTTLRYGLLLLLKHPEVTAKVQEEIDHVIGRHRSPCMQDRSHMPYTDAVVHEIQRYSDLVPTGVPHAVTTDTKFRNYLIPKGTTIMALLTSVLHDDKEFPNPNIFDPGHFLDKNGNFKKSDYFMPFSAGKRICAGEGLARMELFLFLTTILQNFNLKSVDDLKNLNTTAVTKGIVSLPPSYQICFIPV
# [5] = Lipophilicity, log D of the compound; type: physicochemical; conditions: octanol/water
# [6] = Fraction unbound in rat plasma; type: ADME, cell-free
# [7] = Kinetic solubility of the compound at pH 6.5; type: physicochemical; conditions: buffer, read-out: Kinetic_solubility
# [8] = Stability in human liver microsomes assessed as metabolic turnover number at 10 uM after 15 mins by LC-MS/UV analysis; type: ADME, microsome; conditions: read-out: Stability
# [9] = target: Cytochrome P450 2C19 (Homo sapiens, UniProt P33261); assay: Inhibition of CYP2C19 (unknown origin); type: ADME
# [10] = tested on: Salmonella typhimurium; assay: Genotoxicity in Salmonella typhimurium by Ames test; type: toxicity, organism-based; conditions: salmonella enterica subsp. enterica serovar typhimurium
# [11] = target: Cytochrome P450 2D6 (Homo sapiens, UniProt P10635); assay: Inhibition of CYP2D6 (unknown origin); type: ADME
# [12] = target: T2, Cytochrome P450 1A2 (Homo sapiens, UniProt P05177); assay: Inhibition of CYP1A2 (unknown origin); type: ADME
# T2 sequence (P05177 whole entry): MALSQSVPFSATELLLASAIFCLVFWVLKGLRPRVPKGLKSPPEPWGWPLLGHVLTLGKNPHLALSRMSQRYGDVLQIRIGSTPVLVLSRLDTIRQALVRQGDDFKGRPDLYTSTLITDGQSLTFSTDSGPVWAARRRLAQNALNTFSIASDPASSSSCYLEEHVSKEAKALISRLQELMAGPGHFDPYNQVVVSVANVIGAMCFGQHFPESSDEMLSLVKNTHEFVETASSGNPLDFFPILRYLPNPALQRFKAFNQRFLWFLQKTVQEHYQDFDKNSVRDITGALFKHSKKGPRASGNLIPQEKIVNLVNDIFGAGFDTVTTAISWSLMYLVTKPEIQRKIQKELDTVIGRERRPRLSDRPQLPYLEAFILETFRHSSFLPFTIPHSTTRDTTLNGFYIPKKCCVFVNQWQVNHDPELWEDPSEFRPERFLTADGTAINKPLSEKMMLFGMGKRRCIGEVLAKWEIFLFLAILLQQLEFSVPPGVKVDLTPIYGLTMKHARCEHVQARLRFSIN
# [13] = Stability in rat liver microsomes; type: ADME, microsome; conditions: read-out: Stability
# [14] = Passive permeability of the compound in RRCK cells; type: ADME, cell-based, Canis lupus familiaris, MDCKII-LE; conditions: dog, MDCK; read-out: permeability
# [15] = target: Transient receptor potential cation channel subfamily A member 1 (Mus musculus, UniProt Q8BLA8); assay: Antagonist activity at mouse TRPA1 by electrophysiology assay
# [16] = Inhibition of sodium channel site 2 (unknown origin); set-up: species or system Homo sapiens
# [17] = target: Potassium voltage-gated channel subfamily A member 5 (Homo sapiens) (UniProt P22460); assay: Inhibition of Kv1.5 (unknown origin)
# [18] = Stability in rat plasma; type: ADME, cell-free; conditions: read-out: Stability
# [19] = Dissociation constant, pKa of the compound; type: physicochemical
# [20] = Permeability in Sprague-Dawley rat skin at 0.68 mg applied topically measured after 24 hrs; type: ADME, tissue-based, Zone of skin; conditions: in vivo, topical_or_ocular
# [21] = Fraction unbound in human plasma; type: ADME, cell-free
# [22] = target: Transient receptor potential cation channel subfamily M member 8 (Homo sapiens, UniProt Q7Z2W7); assay: Inhibition of human TRPM8
# [23] = Antagonist activity at pig TRPA1 by electrophysiology assay; set-up: species or system Sus scrofa
# [24] = Fraction unbound in dog plasma; type: ADME, cell-free, Canis lupus familiaris
# [25] = target: T3, Potassium voltage-gated channel subfamily KQT member 1 (Homo sapiens, UniProt P51787); assay: Inhibition of KvLQT1 (unknown origin)
# T3 sequence (P51787 whole entry): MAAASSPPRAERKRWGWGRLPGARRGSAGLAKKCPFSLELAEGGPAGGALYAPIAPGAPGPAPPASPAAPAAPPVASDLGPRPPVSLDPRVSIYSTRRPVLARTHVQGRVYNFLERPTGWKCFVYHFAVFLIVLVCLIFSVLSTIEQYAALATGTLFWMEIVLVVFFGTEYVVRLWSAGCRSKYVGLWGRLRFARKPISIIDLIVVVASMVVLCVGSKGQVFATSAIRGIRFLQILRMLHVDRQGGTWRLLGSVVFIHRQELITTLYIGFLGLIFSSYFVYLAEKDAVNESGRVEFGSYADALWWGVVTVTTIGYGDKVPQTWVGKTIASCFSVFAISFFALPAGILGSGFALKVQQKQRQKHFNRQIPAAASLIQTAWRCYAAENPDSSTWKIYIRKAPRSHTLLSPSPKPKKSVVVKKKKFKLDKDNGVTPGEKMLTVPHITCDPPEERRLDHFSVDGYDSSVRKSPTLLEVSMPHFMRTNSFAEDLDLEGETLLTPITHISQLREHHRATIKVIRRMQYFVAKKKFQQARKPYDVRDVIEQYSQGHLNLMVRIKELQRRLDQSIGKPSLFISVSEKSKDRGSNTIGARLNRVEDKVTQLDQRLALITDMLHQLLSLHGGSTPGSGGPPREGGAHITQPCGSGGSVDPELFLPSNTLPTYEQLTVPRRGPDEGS
# [26] = Clearance in rat; type: ADME, organism-based; conditions: in vivo
# [27] = Half life in rat; type: ADME, organism-based; conditions: in vivo
# [28] = target: Transient receptor potential cation channel subfamily A member 1 (Homo sapiens, UniProt O75762); assay: Antagonist activity at full length human TRPA1 at holding potential of 15 mV measured after 1 min by PatchXpress electrophysiology assay
# [29] = target: Transient receptor potential cation channel subfamily V member 1 (Homo sapiens, UniProt Q8NER1); assay: Inhibition of human TRPV1
# [30] = Drug uptake in Sprague-Dawley rat skin epidermal layer at 0.68 mg applied topically measured after 24 hrs; type: ADME, tissue-based, Skin epidermis; conditions: topical or ocular, read-out: Drug uptake
# Transient receptor potential cation channel subfamily A member 1 (Homo sapiens, UniProt O75762), sequence (O75762 whole entry): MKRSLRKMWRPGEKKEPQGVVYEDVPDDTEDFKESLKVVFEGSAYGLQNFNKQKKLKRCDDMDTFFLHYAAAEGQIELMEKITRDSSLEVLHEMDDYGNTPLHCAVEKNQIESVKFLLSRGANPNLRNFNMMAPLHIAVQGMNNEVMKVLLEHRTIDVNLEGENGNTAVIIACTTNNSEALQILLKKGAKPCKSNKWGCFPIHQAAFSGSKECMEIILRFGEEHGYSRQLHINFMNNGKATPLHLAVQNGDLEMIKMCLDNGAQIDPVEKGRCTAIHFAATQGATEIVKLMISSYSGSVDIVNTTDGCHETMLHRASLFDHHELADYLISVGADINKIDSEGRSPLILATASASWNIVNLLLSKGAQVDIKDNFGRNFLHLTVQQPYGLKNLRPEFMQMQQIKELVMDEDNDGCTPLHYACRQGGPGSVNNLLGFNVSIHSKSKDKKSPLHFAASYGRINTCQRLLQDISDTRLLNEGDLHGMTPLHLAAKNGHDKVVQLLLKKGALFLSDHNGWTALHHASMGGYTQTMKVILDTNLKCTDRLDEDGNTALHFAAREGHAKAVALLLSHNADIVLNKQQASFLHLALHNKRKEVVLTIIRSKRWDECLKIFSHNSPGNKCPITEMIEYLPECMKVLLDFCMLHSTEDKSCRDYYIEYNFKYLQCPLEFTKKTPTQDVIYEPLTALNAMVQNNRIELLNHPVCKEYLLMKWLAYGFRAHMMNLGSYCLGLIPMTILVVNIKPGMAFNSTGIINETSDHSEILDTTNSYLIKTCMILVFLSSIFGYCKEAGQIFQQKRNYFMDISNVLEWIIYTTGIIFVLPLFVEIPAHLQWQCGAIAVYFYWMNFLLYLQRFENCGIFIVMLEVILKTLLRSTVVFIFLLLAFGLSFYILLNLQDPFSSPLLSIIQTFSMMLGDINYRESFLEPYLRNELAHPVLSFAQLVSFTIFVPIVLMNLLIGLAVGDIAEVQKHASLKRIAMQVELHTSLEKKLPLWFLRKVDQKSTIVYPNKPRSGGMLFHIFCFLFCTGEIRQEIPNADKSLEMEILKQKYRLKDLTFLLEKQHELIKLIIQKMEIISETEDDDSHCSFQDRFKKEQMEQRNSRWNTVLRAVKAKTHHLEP
# Transient receptor potential cation channel subfamily M member 8, sequence (Q7Z2W7 whole entry): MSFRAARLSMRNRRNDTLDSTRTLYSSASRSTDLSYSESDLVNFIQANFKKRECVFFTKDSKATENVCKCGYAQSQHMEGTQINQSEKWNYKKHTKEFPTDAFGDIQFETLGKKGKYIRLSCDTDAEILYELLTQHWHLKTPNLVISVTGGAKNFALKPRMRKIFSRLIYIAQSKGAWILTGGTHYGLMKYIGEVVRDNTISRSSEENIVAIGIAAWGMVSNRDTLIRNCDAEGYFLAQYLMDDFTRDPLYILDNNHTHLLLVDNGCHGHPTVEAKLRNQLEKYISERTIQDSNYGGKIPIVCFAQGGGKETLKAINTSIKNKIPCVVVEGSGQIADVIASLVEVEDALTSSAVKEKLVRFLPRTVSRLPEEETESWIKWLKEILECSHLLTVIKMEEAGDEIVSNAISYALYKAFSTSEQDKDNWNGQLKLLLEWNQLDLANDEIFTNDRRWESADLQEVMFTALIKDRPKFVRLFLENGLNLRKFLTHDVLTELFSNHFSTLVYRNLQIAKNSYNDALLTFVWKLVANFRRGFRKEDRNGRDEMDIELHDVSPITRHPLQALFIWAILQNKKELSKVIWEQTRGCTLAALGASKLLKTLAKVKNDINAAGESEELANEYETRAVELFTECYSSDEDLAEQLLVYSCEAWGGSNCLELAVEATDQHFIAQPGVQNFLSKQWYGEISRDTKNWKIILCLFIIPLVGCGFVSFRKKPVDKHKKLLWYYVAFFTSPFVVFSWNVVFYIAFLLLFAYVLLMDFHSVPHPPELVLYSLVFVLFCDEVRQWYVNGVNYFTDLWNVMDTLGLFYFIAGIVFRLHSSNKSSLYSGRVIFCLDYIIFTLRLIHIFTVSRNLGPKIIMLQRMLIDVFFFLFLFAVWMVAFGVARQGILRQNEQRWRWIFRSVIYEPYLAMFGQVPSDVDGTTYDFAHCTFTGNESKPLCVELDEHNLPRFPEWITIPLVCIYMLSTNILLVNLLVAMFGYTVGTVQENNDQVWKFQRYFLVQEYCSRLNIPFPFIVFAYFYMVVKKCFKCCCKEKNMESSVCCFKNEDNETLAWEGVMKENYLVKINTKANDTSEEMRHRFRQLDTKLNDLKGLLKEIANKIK
# Transient receptor potential cation channel subfamily A member 1 (Mus musculus, UniProt Q8BLA8), sequence (Q8BLA8 whole entry): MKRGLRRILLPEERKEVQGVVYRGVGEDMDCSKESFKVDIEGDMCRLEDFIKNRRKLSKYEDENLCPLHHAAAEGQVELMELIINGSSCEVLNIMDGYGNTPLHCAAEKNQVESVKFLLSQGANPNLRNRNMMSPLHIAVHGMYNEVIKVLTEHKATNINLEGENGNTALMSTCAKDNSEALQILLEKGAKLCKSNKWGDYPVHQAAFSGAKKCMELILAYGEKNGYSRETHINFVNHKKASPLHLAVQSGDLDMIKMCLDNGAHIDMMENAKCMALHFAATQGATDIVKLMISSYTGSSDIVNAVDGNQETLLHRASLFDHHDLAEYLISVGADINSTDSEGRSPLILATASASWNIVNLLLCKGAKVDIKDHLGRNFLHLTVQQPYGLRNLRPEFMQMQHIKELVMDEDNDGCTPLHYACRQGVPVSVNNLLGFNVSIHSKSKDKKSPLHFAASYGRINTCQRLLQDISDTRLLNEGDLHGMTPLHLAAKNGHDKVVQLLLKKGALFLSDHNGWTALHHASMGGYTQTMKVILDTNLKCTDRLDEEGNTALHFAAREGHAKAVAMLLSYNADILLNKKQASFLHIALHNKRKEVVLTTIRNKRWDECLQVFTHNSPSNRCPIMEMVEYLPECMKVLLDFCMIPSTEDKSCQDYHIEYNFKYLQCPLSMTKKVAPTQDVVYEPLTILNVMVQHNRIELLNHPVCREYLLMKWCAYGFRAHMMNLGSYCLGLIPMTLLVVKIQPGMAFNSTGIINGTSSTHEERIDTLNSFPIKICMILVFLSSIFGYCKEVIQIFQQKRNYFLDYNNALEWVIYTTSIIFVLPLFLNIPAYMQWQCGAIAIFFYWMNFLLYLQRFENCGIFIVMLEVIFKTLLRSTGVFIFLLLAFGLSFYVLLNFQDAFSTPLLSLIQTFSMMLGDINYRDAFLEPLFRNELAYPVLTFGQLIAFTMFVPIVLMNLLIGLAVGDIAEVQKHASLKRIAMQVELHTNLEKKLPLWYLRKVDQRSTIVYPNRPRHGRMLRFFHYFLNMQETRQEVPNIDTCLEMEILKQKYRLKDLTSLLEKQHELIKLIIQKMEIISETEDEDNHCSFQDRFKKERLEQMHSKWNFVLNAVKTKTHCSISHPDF
# Cytochrome P450 3A4, sequence (P08684 whole entry): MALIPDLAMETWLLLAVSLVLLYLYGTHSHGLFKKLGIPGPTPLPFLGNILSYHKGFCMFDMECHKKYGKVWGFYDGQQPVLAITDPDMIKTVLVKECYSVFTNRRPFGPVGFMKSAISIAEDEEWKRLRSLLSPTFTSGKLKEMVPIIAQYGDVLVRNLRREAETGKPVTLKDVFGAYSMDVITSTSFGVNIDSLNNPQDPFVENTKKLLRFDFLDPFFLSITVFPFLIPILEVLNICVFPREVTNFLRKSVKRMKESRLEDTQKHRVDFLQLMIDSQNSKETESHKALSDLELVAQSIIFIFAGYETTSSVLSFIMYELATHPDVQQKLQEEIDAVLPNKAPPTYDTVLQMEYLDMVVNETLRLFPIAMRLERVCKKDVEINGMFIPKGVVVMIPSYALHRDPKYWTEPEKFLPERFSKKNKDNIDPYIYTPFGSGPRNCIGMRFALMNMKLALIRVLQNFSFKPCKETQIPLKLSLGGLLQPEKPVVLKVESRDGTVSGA
# Transient receptor potential cation channel subfamily V member 1, sequence (Q8NER1 whole entry): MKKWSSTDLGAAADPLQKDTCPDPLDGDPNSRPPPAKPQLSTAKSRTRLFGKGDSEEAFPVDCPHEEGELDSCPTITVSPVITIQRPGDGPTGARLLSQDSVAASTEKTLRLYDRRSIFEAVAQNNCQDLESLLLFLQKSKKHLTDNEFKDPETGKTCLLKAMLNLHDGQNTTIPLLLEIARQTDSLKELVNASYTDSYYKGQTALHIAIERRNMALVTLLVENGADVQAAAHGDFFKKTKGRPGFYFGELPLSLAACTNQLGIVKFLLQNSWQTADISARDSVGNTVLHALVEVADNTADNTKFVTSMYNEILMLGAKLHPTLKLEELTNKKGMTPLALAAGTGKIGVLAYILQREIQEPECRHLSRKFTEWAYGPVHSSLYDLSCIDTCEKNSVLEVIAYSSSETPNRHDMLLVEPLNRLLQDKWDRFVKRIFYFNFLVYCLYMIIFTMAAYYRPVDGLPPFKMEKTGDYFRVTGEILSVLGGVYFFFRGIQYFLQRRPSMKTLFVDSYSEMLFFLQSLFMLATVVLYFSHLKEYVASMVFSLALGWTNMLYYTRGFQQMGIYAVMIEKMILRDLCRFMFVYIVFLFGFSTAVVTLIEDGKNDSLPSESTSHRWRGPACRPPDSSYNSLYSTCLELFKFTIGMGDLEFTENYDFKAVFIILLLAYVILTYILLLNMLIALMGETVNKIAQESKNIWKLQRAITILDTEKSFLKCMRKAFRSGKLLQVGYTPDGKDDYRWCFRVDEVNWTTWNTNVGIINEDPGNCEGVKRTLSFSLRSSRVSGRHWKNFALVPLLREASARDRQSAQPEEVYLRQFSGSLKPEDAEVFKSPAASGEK
smiles,measurement,setting,value
O=C(NC[C@@H](Cc1ccccc1)N1CCC(O)(C(F)(F)F)CC1)C1(c2ccc(Cl)cc2)CCCC1,Ratio,[1],11
same,Stability,[2],38 µL/min/mg
same,IC50,[3],2160 nM
same,IC50,[4],11800 nM
same,logD,[5],4.7 to 5
same,fraction unbound,[6],0.00057
same,solubility kinetic,[7],12 µM
same,microsomal CLint at 10 µM,[8],246 µL/min/mg
same,IC50,[9],3150 nM
same,Activity,[10],Non-Toxic
same,IC50,[11],450 nM
same,IC50,[12],> 30000 nM
same,microsomal CLint,[13],524 µL/min/mg
same,Papp,[14],1 ×10⁻⁶ cm/s
same,IC50,[15],4 nM
same,IC50,[16],730 nM
same,INH,[17],> 3000 nM
same,half-life,[18],> 6 h
same,pKa,[19],5.9
same,permeability,[20],0.1 ×10⁻⁵ cm/hr
same,fraction unbound,[21],0.0011
same,IC50,[22],> 3000 nM
same,IC50,[23],65 nM
same,fraction unbound,[24],0.0008
same,INH,[25],> 3000 nM
same,clearance,[26],42 mL/min/kg
same,half-life,[27],4.4 h
same,IC50,[28],0.72 to 8 nM
same,IC50,[29],> 3000 nM
same,concentration at 24 h,[30],3.13e+06 ng/g

# Source: ChEMBL document CHEMBL4190175 (Medchemcomm, 2016)
